Converted amounts (≈) assume the structure as drawn. “And” between values parts separate entries of the source, which are not always exact repeats. Equal values may be shown once. Read-outs that look alike come from different tables or passages of the source.
How the values were obtained:
bovine testicular HAase = biological target: T1, bovine testicular HAase (Bos taurus, UniProt Q2YDK3); experiment: Hyaluronidase inhibition assay; type: biochemical; details: for IC50 on HAase enzyme activity: nonlinear regression of inhibition rates at five concentrations (1-40 µg/mL); for inhibition at 40 µg/mL: read-out: Inhibition (%) of HAase enzyme activity
T1 sequence (Q2YDK3 36-553): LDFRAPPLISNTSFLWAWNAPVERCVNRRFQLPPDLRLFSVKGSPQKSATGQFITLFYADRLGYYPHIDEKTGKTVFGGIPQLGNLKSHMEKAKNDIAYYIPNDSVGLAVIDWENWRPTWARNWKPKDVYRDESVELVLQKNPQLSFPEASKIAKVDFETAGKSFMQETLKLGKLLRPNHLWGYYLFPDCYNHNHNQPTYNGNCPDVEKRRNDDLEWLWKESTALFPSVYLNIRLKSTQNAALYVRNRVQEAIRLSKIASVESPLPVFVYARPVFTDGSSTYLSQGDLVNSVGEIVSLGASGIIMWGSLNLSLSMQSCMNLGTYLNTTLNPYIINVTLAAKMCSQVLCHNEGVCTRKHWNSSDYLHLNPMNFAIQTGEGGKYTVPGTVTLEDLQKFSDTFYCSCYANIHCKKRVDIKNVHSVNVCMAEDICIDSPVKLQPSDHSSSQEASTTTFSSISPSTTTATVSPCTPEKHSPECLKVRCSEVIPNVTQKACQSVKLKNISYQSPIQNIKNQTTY
Experimental: Inhibitory effect on bovine testicular HAase activity was evaluated using a reported method with minor modifications. It is noted that long HA chains and HAase may form of non-active complexes at low ionic condition, which can impede the catalytic activity of HAase and disrupt the HAase inhibition assay. This interference can be avoided by adding a positively charged protein to balance the ionic strength of the reaction system and recover the activity of HAase[24]. […] […] Then hyaluronic acid (HA; 100 μL) was added to the pre-incubated mixture at 37 °C for 45 min. […] The absorbance was then measured at a wavelength of 600 nm using a microplate reader (SpectraMax M2, Molecular Devices Corp., operated by SoftmaxPro v.4.6 software, Sunnyvale, CA, USA). Each sample was tested at least in three replicates. […] The IC50 value of each sample was determined by analysing its inhibition rates at different concentrations with a nonlinear regression algorithm by GraphPad Prism.

HAase = experiment: Lineweaver-Burk plot, enzyme kinetics of HAase inhibition; type: biochemical, bovine; details: four concentrations (5–40 µg/mL); HA 0.125–2.0 µM (6c), 0.2–1.0 µM (6g)
Experimental: The inhibition type of test compounds was determined by the Lineweaver-Burk plots.

[1] = Cell viability, XTT assay; type: cell-based; details: human, HaCaT keratinocyte cells
Experimental: Human keratinocytes (HaCaT) cells were purchased from Sigma Aldrich Co. (St. Louis, MO, USA) and cultured in Dulbecco’s modified Eagle’s medium (DMEM; Life Technologies; Gaithersburg, MD, USA) with 10% fetal bovine serum (Gibico; Grand Island, NY, USA) at 37 °C in the presence of 5% CO2. The cell viability of HaCaT treated with or without OA and its derivatives was measured by the XTT assay according to manufacturer’s instructions (XTT Cell proliferation Kit II; Roche, USA). Briefly, HaCaT cells were seeded in 96-well plates at 5 × 10^3 cells per well and allowed to attach for 12 h. Then OA and its derivatives (100 µL; 10 µg/mL) were incubated with cells for 24 h, followed by adding the XTT reagent (50 µL; 0.3 mg/mL) in each well and incubated for 4 h. The absorbance of each well was measured at wavelengths of 450 nm using a SpectraMax M2 plate reader (Molecular Devices; Sunnyvale, CA, USA).

HaCaT cells = experiment: Cellular reactive oxygen species (ROS), H2O2-induced, DCFDA probe; type: cell-based, human; details: 10 µg/mL for 24 h, then H2O2 200 µM for 1 h
Experimental: HaCaT cells were seeded in 96-well plates at 6 × 10^3 cells per well and allowed to attach for 12 h. Then the cells were incubated with test samples (10 µg/mL) for 24 h. Next, the cell culture medium was removed and fresh phosphate buffer solution (PBS; 100 µL) containing a fluorescent probe 2′,7′-dichlorofluorescin diacetate (DCFDA; 20 µM) was added to the cells and incubated for 20 min. Then the cells were treated with H2O2 (100 µL; 200 µM) for 1 h followed by measuring the fluorescence intensity of each well with excitation and emission wavelengths of 485 and 525 nm, respectively, using a SpectraMax M2 plate reader.

Compound: Cc1cc(C)c2[nH]c3c(c2c1)CC1(C)C(CCC2(C)C1CC=C1C4CC(C)(C)CCC4(C(=O)O)CCC12C)C3(C)C (stereo not shown) [Compound 6d]
- Inhibition (%) of HAase enzyme activity (bovine testicular HAase; at 40 μg/mL): 93.5 ± 3.9%
- IC50 on HAase enzyme activity (bovine testicular HAase): 11.62 µg/mL (≈ 20.9 µM)

Compound: CC1(C)CCC2(C(=O)O)CCC3(C)C(=CCC4C5(C)Cc6c([nH]c7c([N+](=O)[O-])cccc67)C(C)(C)C5CCC43C)C2C1 (stereo not shown) [Compound 6a]
- Inhibition (%) of HAase enzyme activity (bovine testicular HAase; at 40 μg/mL): 100.9 ± 4.3%
- IC50 on HAase enzyme activity (bovine testicular HAase): 16.23 µg/mL (≈ 28.3 µM)

Compound: CC1(C)CCC2(C(=O)O)CCC3(C)C(=CCC4C5(C)Cc6c([nH]c7c(Cl)cccc67)C(C)(C)C5CCC43C)C2C1 (stereo not shown) [Compound 6g]
- Inhibition type (Lineweaver-Burk plot) (HAase): mixed type of competitive and non-competitive inhibitions
- Inhibition (%) of HAase enzyme activity (bovine testicular HAase; at 40 μg/mL): 98.1 ± 0.4%
- IC50 on HAase enzyme activity (bovine testicular HAase): 9.57 µg/mL (≈ 17 µM)

Compound: CC1(C)CCC2(C(=O)O)CCC3(C)C(=CCC4C5(C)Cc6c([nH]c7c(F)cccc67)C(C)(C)C5CCC43C)C2C1 (stereo not shown) [Compound 6b]
- Inhibition (%) of HAase enzyme activity (bovine testicular HAase; at 40 μg/mL): 100.2% and 100.4 ± 2.4%
- IC50 on HAase enzyme activity (bovine testicular HAase): 12.58 µg/mL (≈ 23 µM)

Compound: CC1(C)CC[C@]2(C(=O)O)CC[C@]3(C)C(=CCC4[C@@]5(C)CCC(=O)C(C)(C)C5CC[C@]43C)C2C1 (stereo partly shown) [Compound 2]
- inhibition at 40 µg/mL (bovine testicular HAase): 15.9 ± 4.3%

Compound: CC1(C)CCC2(C(=O)O)CCC3(C)C(=CCC4C5(C)Cc6c([nH]c7c(Br)cccc67)C(C)(C)C5CCC43C)C2C1 (stereo not shown) [Compound 6f]
- Inhibition (%) of HAase enzyme activity (bovine testicular HAase; at 40 μg/mL): 100.6 ± 3.6%
- IC50 on HAase enzyme activity (bovine testicular HAase): 10.14 µg/mL (≈ 16.7 µM)

Compound: CC1(C)CC[C@]2(C(=O)O)CC[C@]3(C)C(=CC[C@@H]4[C@@]5(C)CC[C@H](O)C(C)(C)[C@@H]5CC[C@]43C)[C@@H]2C1 [Compound 1, Oleanolic acid, reference compound]
- viability at 24 h, 10 µg/mL [1]: 96.7%
- inhibition at 40 µg/mL (bovine testicular HAase): 59.3 ± 2.4%

Compound: CC1(C)CCC23CC[C@]4(C)C(OC2=O)(C(F)CC2[C@@]5(C)CC[C@H](O)C(C)(C)C5CC[C@]24C)C3C1 (stereo partly shown) [Compound 3]
- inhibition at 40 µg/mL (bovine testicular HAase; at 40 μg/mL): 12.7 ± 3.9%

Compound: CC1(C)CCC2(C(=O)O)CCC3(C)C(=CCC4C5(C)Cc6c([nH]c7ccc(Br)cc67)C(C)(C)C5CCC43C)C2C1 (stereo not shown) [Compound 6e]
- Inhibition (%) of HAase enzyme activity (bovine testicular HAase; at 40 μg/mL): 83.7 ± 3.3%
- IC50 on HAase enzyme activity (bovine testicular HAase): 11.60 µg/mL (≈ 19.1 µM)

Compound: CC1(C)CCC23CC[C@]4(C)C(OC2=O)(C(F)CC2[C@@]5(C)CCC(=O)C(C)(C)C5CC[C@]24C)C3C1 (stereo partly shown) [Compound 4]
- inhibition at 40 µg/mL (bovine testicular HAase; at 40 μg/mL): 37.3 ± 1.4%

Compound: CC1(C)CCC2(C(=O)O)CCC3(C)C(=CCC4C5(C)Cc6c([nH]c7c(F)cc(F)cc67)C(C)(C)C5CCC43C)C2C1 (stereo not shown) [Compound 6c]
- Inhibition type (Lineweaver-Burk plot) (HAase): mixed type of competitive and non-competitive inhibitions
- decrease of ROS level vs H2O2-exposed cells (HaCaT cells): 23.6%
- Inhibition (%) of HAase enzyme activity (bovine testicular HAase; at 40 μg/mL): 86.3 ± 3.3%
- IC50 on HAase enzyme activity (bovine testicular HAase): 9.97 µg/mL (≈ 17.7 µM)

— article PMC8317927 (Journal of Enzyme Inhibition and Medicinal Chemistry, 2021)
